{"source": "patent US20060167026A1", "about": "“Antipsychotic molecular-targeting epithelial growth factor receptor” (Hiroyuki Nawa, priority 2003, published 2006)", "key": {"[1]": {"system": "rats to which EGF was administered as neonates (model for cognitive dysfunction)", "assay": "prepulse inhibition of acoustic startle in rats to which EGF was administered as neonates", "type": "in vivo, rat", "procedure": "Newborn Sprague-Dawley (SD) rats were purchased from SLC (Shizuoka, Japan). Recombinant human EGF (Higeta-Syoyu Co, Chiba Japan) and cytochrome c (Sigma Chemical Co; control) were dissolved in physiologic saline. These agents were administered subcutaneously to rat pups on postnatal days 2, 4, 6, 8, and 10 at the nape of the neck at a dose of 1.75 μg of 1 g body weight).\nAcoustic startle amplitudes and PPI responses were measured in a startle reaction chamber for small animals (SR-Lab Systems, San Diego Instruments, San Diego, Calif.) from postnatal week 3. Acoustic startle was induced with acoustic stimuli (120 dB), in combination with three different prepulse intensities of 5-, 10-, and 15-dB-above background noise (75, 80, 85 dB). The 120 dB pulse was followed 100 ms after one of the prepulses was given. Each rat was placed in the startle chamber and initially acclimatized for 5 min with background noise alone. Prepulse inhibition (PPI) of a startle response was calculated as: 100−[(startle response on prepulse pulse stimulus trials−no stimulus trials)/(pulse alone trials−no stimulus trials)×100].\nSD rats treated with EGF or cytochrome c (control) were tested on postnatal days 56-66. […] The same concentration of DMSO solution was used as a control.\nAfter anesthesia, a 28 gauge cannula was inserted into the site of rat skull (0.3 mm anterior and 1.2 mm right lateral measured from the bregma, 4.5 mm below the skull) and glued to the skull with dental cement. The end of cannula was connected to an osmotic minipump (250 μl, effective for 14 days model 2002; Azla Corp.) via vinyl tubing. Pumps were implanted subcutaneously in the nape of the neck. […] The scalp incision was closed with surgical suture and staples, and rats were maintained to wait recovery from the operation.\nSeven days after administration, prepulse inhibition of the rats was monitored with 85 dB prepulse intensity using the acoustic startle measurement chamber for small animals (SR-Lab Systems, San Diego Instruments, San Diego, Calif.)."}, "[2]": {"system": "rat model for cognitive dysfunction (EGF administered to neonatal rats)", "assay": "latent inhibition in two-way active avoidance, neonatally EGF-treated rat model", "type": "in vivo", "procedure": "The rat model for cognitive/behavioral dysfunction was prepared as EGF was administered to neonatal rats as described in the method of Experiment 1. SD rats were subjected to the two-way active avoidance task in an automated shuttle box (Muromachi-kiki, Tokyo, Japan) on postnatal weeks 6-8. The conditioned stimulus (CS) was an 80-dB tone and house light on and off. Rats learned the following task: When the CS was on, the animals had to cross to the other side of the shuttle box apparatus (avoidance response) in order to turn the CS off and avoid the appearance of the unconditioned stimulus (US). […] Rats were given 6 sessions of two-way active-avoidance conditioning (10 trials per session)(total 60 trials). Active-avoidance learning was evaluated by scoring the number of avoidance rate to CS.\nBefore this learning test was conducted, the CS of an 80-dB tone and house light had been given to normal rats without delivering US (pre-conditioning), following avoidance learning was impaired in these rats (FIG. 5 top; open circle). This is latent inhibition that represents the effect of the pre-exposure of a conditioned stimulus (CS, e.g. tone), preventing the learning of unconditioned stimulus (Russig H et al. Neuropsychopharmacology 26: p 765-777 (2002)).\nWhen the rat model for cognitive/behavioral dysfunction, which is described in the Experiment 1, was exposed to the pre-conditioning. […] Such persistency can be inducible with hallucinogens such as cocaine (Murphy, C. A. et al. Behav Pharmacol. 12:p 13-23 (2001))."}}, "data": [{"smiles": "COc1cc2ncnc(Nc3ccc(F)c(Cl)c3)c2cc1OCCCN1CCOCC1", "note": "[Compound B, 4-(3-chloro4-fluoroanilino)-7-methoxy-6-(3-morphorinopropoxy) quianozoline]", "values": [{"measurement": "difference in prepulse inhibition between treated model rats and control animals", "setting": "[1]; EGF model rats, intraventricular minipump 1 mg/ml, day 7, 85 dB prepulse", "result": "no significant differences"}, {"measurement": "effect on abnormal decrease in prepulse inhibition", "setting": "[1]; EGF model rats, intraventricular osmotic minipump 1 mg/ml, seven days after administration, 85 dB prepulse, compared to solvent-injected group", "result": "significantly ameliorated the abnormal decrease in prepulse inhibition"}, {"measurement": "effect on prepulse inhibition in normal control rats", "setting": "[1]; normal control rats, intraventricular minipump 1 mg/ml, day 7, 85 dB prepulse", "result": "had no effects in prepulse inhibition"}, {"measurement": "learning ability of treated model rats relative to normal controls", "setting": "[2]; EGF model rats, pre-conditioned, two-way active avoidance", "result": "indistinguishable from that of normal controls"}, {"measurement": "effect on abnormal increase in latent inhibition", "setting": "[2]; EGF model rats, pre-conditioned, two-way active avoidance, intraventricular minipump", "result": "significantly exert an ameliorative effect on abnormal increase in latent inhibition"}, {"measurement": "learning ability in conditioned avoidance learning", "setting": "[2]; both normal control rats and model rats, after administration", "result": "exhibited better learning ability"}]}]}
